Patent US12534439B2, “Xanthohumol derivatives and methods for making and using” (Oregon State University, priority 2021, dated 2026)

Test system: HFD-fed C57BL/6J mice
Experiment: Untargeted cortex LC-MS metabolomics
Type: in vivo
Conditions: cortex of HFD-fed mice
Experimental: Plasma and Cortex LC-MS Metabolomics. The left and right sides of the cortex were pooled and ground using liquid nitrogen. Cortex samples (approximately 30 mg) were extracted as previously described with slight modifications. Tissues were homogenized with 600 μL of cold 80% acetonitrile with 0.1% formic acid containing 0.2 μg/mL of dopamine-d4 (Sigma-Aldrich, St Louis, MO, USA) and 0.2 μg/mL of chlorpropamide (Sigma-Aldrich, St Louis, MO, USA) using a counter-top bullet blender for 2 min and centrifuged at 20 000 rpm for 10 minutes. Supernatants were transferred to high performance liquid chromatography (HPLC) vials for analysis.
LC-high-resolution mass spectrometry/MS. Data dependent acquisition in both negative and positive ion mode was conducted using a Shimadzu Nexera UPLC system coupled to an AB SCIEX TripleTOF 5600 mass spectrometer (AB SCIEX, Toronto, Canada). Chromatographic separation was conducted using an Inertsil Phenyl-3 column (4.6×150 mm, 100 Å, 5 μm; GL Sciences, Tokyo, Japan). Spray voltage was −4200 V for negative ion mode and 4500 V for positive ion mode acquisition. The injection volume was 3 μL. Metabolite identifications were performed using Progenesis QI software (V2.4.6911) with METLIN plugin V1.0.6499 (NonLinear Dynamics, United Kingdom). Progenesis QI was used for peak picking, retention time correction, data normalization, peak alignment, and metabolite annotations. Metabolites were detected in both ion modes; the one with the lowest coefficient of variation of the QC was kept.

## COc1cc(O)c(CC=C(C)C)c(O)c1C(=O)/C=C/c1ccc(O)cc1 [XN, xanthohumol]
  Ion intensities, Mean: 1,2-DIPALMITOYL-SN-GLYCEROL: 934.62
  Ion intensities, Mean: 1-Arachidonoyl-glycerophosphoinositol: 645.87
  Ion intensities, Mean: 1-Palmitoyl-2-linoleoyl PE: 1782.31
  Ion intensities, Mean: 2-Pyrrolidinone: 1091.46
  Ion intensities, Mean: 2′-DEOXYURIDINE 5′-MONOPHOSPHATE: 615.86
  Ion intensities, Mean: 3-Methyl-L-histidine: 495.48
  Ion intensities, Mean: 3-PHOSPHO-GLYCERIC ACID: 2094.74
  Ion intensities, Mean: 5-Acetylamino-6-amino-3-methyluracil: 108.09
  Ion intensities, Mean: 5-Methylcytidine: 6615.71
  Ion intensities, Mean: 12-HYDROXYDODECANOIC-ACID: 2479.58
  Ion intensities, Mean: 20-Hydroxy-PGE2: 9703.49
  Ion intensities, Mean: 27-Hydroxycholesterol: 17882.79
  Ion intensities, Mean: ADENOSINE: 42044.83
  Ion intensities, Mean: ADENOSINE 5′-DIPHOSPHORIBOSE: 2010.85
  Ion intensities, Mean: ADENOSINE 5′-MONOPHOSPHATE: 75745.39
  Ion intensities, Mean: ADENOSINE-5′-DIPHOSPHOGLUCOSE: 924.21
  Ion intensities, Mean: ADP: 1070.27
  Ion intensities, Mean: AMINOADIPATE: 211.18
  Ion intensities, Mean: ASCORBATE: 2138.35
  Ion intensities, Mean: ASPARTATE: 1174.88
  Ion intensities, Mean: Acetylcarnitine: 11173.39
  Ion intensities, Mean: Acetylcholine: 1788.61
  Ion intensities, Mean: Adenine: 1575.62
  Ion intensities, Mean: Adenylosuccinate: 482.18
  Ion intensities, Mean: Adenylsuccinic acid: 1871.57
  Ion intensities, Mean: Arachidonic acid: 25496.26
  Ion intensities, Mean: Arachidonic acid ethyl ester: 417.92
  Ion intensities, Mean: Arginine: 1863.90
  Ion intensities, Mean: Aspartic acid: 8381.28
  Ion intensities, Mean: BILIVERDIN: 251.38
  Ion intensities, Mean: CARNITINE: 11992.59
  Ion intensities, Mean: CDP-Ethanolamine: 303.02
  Ion intensities, Mean: CHENODEOXYCHOLATE: 5290.32
  Ion intensities, Mean: CITRATE: 997.79
  Ion intensities, Mean: CMP: 586.09
  Ion intensities, Mean: Carnosine: 929.30
  Ion intensities, Mean: Choline: 7326.72
  Ion intensities, Mean: Creatine: 81660.56
  Ion intensities, Mean: Cysteineglutathione disulfide: 1321.30
  Ion intensities, Mean: Cytidine: 766.86
  Ion intensities, Mean: Cytidine 2′,3′-cyclic phosphate: 419.79
  Ion intensities, Mean: Cytidine diphosphate choline (CDPcholine): 2132.21
  Ion intensities, Mean: D-GLUCOSE 6-PHOSPHATE: 54.37
  Ion intensities, Mean: D-Glucaro-1,4-lactone: 1852.68
  Ion intensities, Mean: D-RIBOSE 5-PHOSPHATE: 119.65
  Ion intensities, Mean: DESMOSTEROL: 16777.33
  Ion intensities, Mean: DIHYDROOROTATE: 129.45
  Ion intensities, Mean: Deoxycytidine: 405.53
  Ion intensities, Mean: Deoxyguanosine: 2552.08
  Ion intensities, Mean: Docosahexaenoic acid: 3528.63
  Ion intensities, Mean: Docosenamide: 22701.50
  Ion intensities, Mean: Dodecanedioic acid: 332.32
  Ion intensities, Mean: ERUCIC ACID: 114.42
  Ion intensities, Mean: ETHANOLAMINE PHOSPHATE: 361.87
  Ion intensities, Mean: Ergothioneine: 433.26
  Ion intensities, Mean: Ethyl nicotinate: 74.78
  Ion intensities, Mean: GLUTAMIC ACID: 7047.98
  Ion intensities, Mean: GLUTAMINE: 18241.11
  Ion intensities, Mean: GUANOSINE 5′-MONOPHOSPHATE: 2052.93
  Ion intensities, Mean: Glutamate: 45779.91
  Ion intensities, Mean: Glutathione: 194624.55
  Ion intensities, Mean: Glycerophosphocholine: 104911.40
  Ion intensities, Mean: Guanosine monophosphate: 482.20
  Ion intensities, Mean: HEPTADECANOATE: 24.77
  Ion intensities, Mean: HISTIDINE: 901.19
  Ion intensities, Mean: Homocarnosine: 433.96
  Ion intensities, Mean: Homoserine: 952.74
  Ion intensities, Mean: Hydroxybutyric acid: 2561.64
  Ion intensities, Mean: Hydroxyphenethylamine: 3489.46
  Ion intensities, Mean: Hypoxanthine: 100.45
  Ion intensities, Mean: Hypusine: 94.62
  Ion intensities, Mean: ISOCITRIC ACID: 2099.31
  Ion intensities, Mean: ISOLEUCINE: 1271.60
  Ion intensities, Mean: Indoleacetaldehyde: 565.25
  Ion intensities, Mean: Inosine: 1426.47
  Ion intensities, Mean: Inosine 5′-monophosphate (IMP): 3551.74
  Ion intensities, Mean: Isostearic acid: 2314.30
  Ion intensities, Mean: L-2-Amino-5-hydroxypentanoicacid: 1771.05
  Ion intensities, Mean: L-OLEOYL-RAC-GLYCEROL: 3415.51
  Ion intensities, Mean: LACTATE: 3374.25
  Ion intensities, Mean: LAUROYLCARNITINE: 384.69
  Ion intensities, Mean: LEUKOTRIENE B4: 49.50
  Ion intensities, Mean: LYSINE: 51.50
  Ion intensities, Mean: Lathosterol: 23593.87
  Ion intensities, Mean: Lipoamide: 70.91
  Ion intensities, Mean: MALATE: 1271.76
  Ion intensities, Mean: Methionine: 1365.89
  Ion intensities, Mean: Methylthioadenosine: 2473.94
  Ion intensities, Mean: Myristoylcarnitine: 1742.03
  Ion intensities, Mean: N,N-dimethyl-Safingol: 638.46
  Ion intensities, Mean: N-(1-Deoxy-1-fructosyl) serine: 3036.19
  Ion intensities, Mean: N-ACETYL-L-ASPARTICACID: 24960.43
  Ion intensities, Mean: N-ACETYLNEURAMINATE: 817.62
  Ion intensities, Mean: N-Acetyl-Glutamic acid: 154.68
  Ion intensities, Mean: N-Acetyl-L-alanine: 1997.71
  Ion intensities, Mean: N-Acetylaspartylglutamic acid: 2179.47
  Ion intensities, Mean: N-Acetylglutamine: 273.18
  Ion intensities, Mean: N-Acetylisoputreanine: 99.54
  Ion intensities, Mean: N-Acetyllactosamine: 308.43
  Ion intensities, Mean: N-Linoleoyl GABA: 57.01
  Ion intensities, Mean: N-Methyl-Glutamate: 2277.43
  Ion intensities, Mean: N-a-Acetyl-Arginine: 175.03
  Ion intensities, Mean: NAD: 532.29
  Ion intensities, Mean: NE,NE,NE-TRIMETHYLLYSINE: 2830.12
  Ion intensities, Mean: Niacinamide: 4607.66
  Ion intensities, Mean: Nicotinamide adenine dinucleotide (NAD): 2094413
  Ion intensities, Mean: O-Phosphoethanolamine: 497.23
  Ion intensities, Mean: Octadecenoic acid: 202.97
  Ion intensities, Mean: Oleamide: 4025.45
  Ion intensities, Mean: Oxidized glutathione: 2115.40
  Ion intensities, Mean: PALMITATE: 1472.32
  Ion intensities, Mean: PALMITOLEIC ACID: 62.02
  Ion intensities, Mean: PANTOTHENIC ACID: 442.74
  Ion intensities, Mean: PETROSELINIC ACID: 220.71
  Ion intensities, Mean: PHENYLALANINE: 2371.34
  Ion intensities, Mean: PHENYLETHANOLAMINE: 1245.94
  Ion intensities, Mean: Phenylpropionylglycine: 294.60
  Ion intensities, Mean: Phosphocholine: 18574.78
  Ion intensities, Mean: Phosphodimethyl-ethanolamine: 161.80
  Ion intensities, Mean: Pipecolic acid: 422.43
  Ion intensities, Mean: Propionylcarnitine: 571.28
  Ion intensities, Mean: Pyridoxamine-5′-Phosphate: 377.92
  Ion intensities, Mean: RAC-GLYCEROL-L-MYRISTATE: 293.55
  Ion intensities, Mean: S-Adenosylhomocysteine: 397.04
  Ion intensities, Mean: S-Adenosylmethionine: 11562.08
  Ion intensities, Mean: SERINE: 355.32
  Ion intensities, Mean: SUCCINATE: 362.22
  Ion intensities, Mean: Spermic acid 1: 178.91
  Ion intensities, Mean: Spermidine: 5406.36
  Ion intensities, Mean: Sphinganine: 34.01
  Ion intensities, Mean: Sphinganine 1-phosphate: 2568.50
  Ion intensities, Mean: Sphingosine: 1322.46
  Ion intensities, Mean: Stearoylglycerophosphoserine: 2006.21
  Ion intensities, Mean: Succinyladenosine: 192.45
  Ion intensities, Mean: TAURINE: 6070.22
  Ion intensities, Mean: THEOPHYLLINE: 18.71
  Ion intensities, Mean: TRYPTOPHAN: 1131.43
  Ion intensities, Mean: Tetradecanedioic acid: 125.75
  Ion intensities, Mean: Tetrahydrodeoxycortisol: 3344.70
  Ion intensities, Mean: Threoninyl-Alanine: 227.23
  Ion intensities, Mean: Tyrosine: 4311.01
  Ion intensities, Mean: URIDINE: 1155.56
  Ion intensities, Mean: URIDINE 5′-DIPHOSPHOGALACTOSE: 462.04
  Ion intensities, Mean: URIDINE-5-MONOPHOSPHATE: 2103.27
  Ion intensities, Mean: Undecanedicarboxylic acid: 236.12
  Ion intensities, Mean: Uracil: 201.36
  Ion intensities, Mean: Uridine 5′-diphosphate: 248.01
  Ion intensities, Mean: Xanthine: 137.03
  Ion intensities, Mean: cyclic GMP-AMP: 1495.60
  Ion intensities, Mean: diethyltoluamide: 8.44
  Ion intensities, Mean: docosa-hexaenoic acid: 3095.80
  Ion intensities, Mean: hydroxyhexadecanoyl carnitine: 1430.92
  Ion intensities, Mean: hydroxyvitamin D3: 16859.40
  Ion intensities, Mean: sn-glycero-3-Phosphoethanolamine: 737.74
